In one data set the test system is C57BL/6 mice. To be noted: mouse, in vivo, ip.
Data set [1] concerns P2RX4, P2RX7, P2RY1, P2RY2, P2RY4. Kind of data set: Purinergic receptor expression in nTregs (real-time PCR, immunofluorescence). Type of data set: cell-based, mouse. To be noted: 24 hrs. Background: In qPCR the cycle at which signal appears reflects the starting amount.
Data set [2] deals with tryptophan hydroxylase-1 (Tph-1) and carboxypeptidase A3 (CA3). Kind of data set: Gene expression in CD4+ T cells (microarray, qPCR). The format is cell-based, mouse. An excerpt: After successive washes, RNA was eluted.
The test system of the next data set is naïve CD4+ T cells. The experiment in a line: Naïve CD4+ T cell differentiation under Th17 polarizing conditions. The format is cell-based, mouse. The text has this:
To elucidate the role of NAD^+ on CD4^− T cell differentiations in Th17 polarizing conditions, isolated naïve CD4^+ T cells were activated with anti-CD3/CD28 antibodies in the presence of recombinant TGFβ, IL-6 and anti-IL-4, anti-IL-12, and anti-IFNγ antibodies. […] Of note, expression of the pro-inflammatory cytokine TNF-α was inhibited in presence of NAD^+ (FIG. 1E).
Single-cell leukocyte suspensions were obtained from spleens from 8-10 week old DBA mice and CD4^− T cells were isolated by negative selection using a CD4^+ T cell isolation kit (MILTENYI BIOTEC, Bergisch Gladbach, Germany). Cells were further sorted using α-CD4-PE (EBIOSCIENCE, San Diego, Calif.) and purities of CD4^+ T cells after isolation were >98%.
All recombinant cytokines and antibodies were purchased from EBIOSCIENCE except recombinant TGF-β cytokine (R&D SYSTEMS, Minneapolis, Minn.). After 96 hrs of culture supernatants and cells were collected and analyzed by ELISA and flow cytometry, respectively.
Fluorescently labeled anti-mouse α-CD4 (GK1.5), α-CD25 (PC61), α-IFN-γ (XMG1.2) and unlabeled α-CD16/CD32 (2.4G2) antibodies were obtained from BD BIOSCIENCES (San Jose, Calif.). Fluorescently labeled anti-mouse α-IL-4 (FJK-16s), α-IL-10 (JES5-16E3), α-IL-17A (eBio17B7), and anti-TGFβ (TW7-16B4) were obtained from eBIOSCIENCE (San Diego, Calif.). Intracellular staining for IL-4, IL-10, IL-17A, IFNγ and TGFβ was performed according to manufacturers' protocols. Splenocytes were re-stimulated in complete media (RPMI media containing 10% FCS, 1% L-Glutamine, 1% Penicillin/Streptomycin; all Bio Whittaker, Walkersville, Md.) for 4 hours at 37° C. with ionomycin, phorbol 12-myristate 13-acetate and Brefelding A (EBIOSCIENCE). Cells were fixed and permeabilized using CYTOFIX/CYTOPERM solution (BD BIOSCIENCES). Flow cytometry measurements of single-cell suspensions were performed on a FACSCalibur using standard procedures and data were analyzed using FLOWJO software (TREE STAR, Ashland, Oreg.).

For data set [3], the system named is Fully MHC-mismatched tail skin allografts in mice. Kind of data set: Skin transplantation model. The format is in vivo, mouse. The text has this:
More importantly, in transplantation nTregs promote allograft survival while Th17 cells enhance allograft rejection^44-45. Thus, to study, in vivo, the impact of NAD^+ on nTregs and Th17 cells a transplant mouse model was used. Fully MHC-mismatched C57BL/6 (H2^b) tail skin allografts were transplanted onto DBA/2 (H2^d) mice that received daily intraperitoneally a solution containing NAD^+ or a placebo solution (PBS) and graft survival was monitored. […] Therefore, NAD^+ treatment was expected to promote allograft rejection. […] Recipient mice were evaluated by day 8 and the frequency of nTregs CD4^+CD25^+Foxp3^+ and CD4^+IL17-A^+ cells was assessed (FIG. 14B). […] Next, mechanisms by which NAD^+ could promote nTreg conversion into Th17 cells and allograft survival at the same time, e.g., two paradoxes, were assessed. Strikingly, when compared to the control group, more than 60% of CD4^+ T cells of NAD^+ treated mice were IL-10^+ producing cells (FIG. 14B). It is known that IL-10 is a robust immunosuppressive cytokine^46. Therefore, it was tested whether the allograft survival observed in recipient mice treated with NAD^| was the results of a systemic increase of IL-10 production. Thus, WT and IL-10^−/− mice (on a C57BL6/ background) received a BDA skin transplant and were treated with NAD^|.
Full-thickness tail skin grafts (˜1 cm^2) were procured from C57BL/6 mice and engrafted onto the dorsolateral thoracic wall of DBA/2 recipient mice using interrupted 5-0 Vicryl sutures. NAD^+ (100 μl of a solution containing 10 mg in PBS), or PBS (100 μl) were injected intraperitoneally and grafts were covered with gauze and adhesive bandage for 5 days. Graft survival was then monitored daily and rejection was defined as graft necrosis of 100%. Two investigators blinded for the particular experimental groups assessed graft survival independently. Eight days after transplantation, single-cell leukocyte suspensions were obtained from spleens procured from recipient mice to perform re-stimulation (with PMA and Ionomycin for 2hrs) and staining for surface and intracellular antigens as described above.

Where [4] appears, read: nTregs, anti-CD3/CD28, with vs without NAD+.
Where [5] appears, read: recipient spleen, day 8, NAD+ vs placebo.

Where only a bound is given, the exact number is not on record here.

Procedure for C57BL/6 mice: C57BL/6 mice (8-10 weeks old) were daily administered 60 mg of NAD^+ or a placebo solution (PBS) intraperitoneally during 4 days. Blood and spleen were collected after 4 days of treatment. Absolute number of lymphocytes in the blood was determined using a hemocytometer (model 850 FS, Drew Scientific, Miami lakes, Fla.). To determine absolute lymphocyte number in spleens, cells were isolated and counted with a hemocytometer then stained with antibodies anti-CD4^+, CD3^+ or B220^+ and percentage was determined by flow analysis.

Consider `NC(=O)c1ccc[n+]([C@@H]2O[C@H](COP(=O)([O-])OP(=O)(O)OC[C@H]3O[C@@H](n4cnc5c(N)ncnc54)[C@H](O)[C@@H]3O)[C@@H](O)[C@H]2O)c1` [NAD+, nicotinamide adenine dinucleotide], for which, in the data set with C57BL/6 mice, the “absolute number of circulating lymphocytes in the blood and spleens” value is recorded as “did not affect”. Moreover, in data set [1] (immunofluorescence, 50 μM NAD), the “expression of P2RX4 receptor on the cell surface” value is “increased” and the “expression of P2RX7 receptor on the cell surface” value is reported as “increased”. Also, in data set [1] (setting [4]), the “P2RX4 mRNA expression level” value is greater than 4 fold and the “P2RX7 mRNA expression level” value is greater than 15 fold. Also, in data set [1] (nTregs, with vs without NAD+), the “P2RY1 mRNA level” value is reported as “remained unchanged”, the “P2RY2 mRNA level” value is reported as “remained unchanged” and the “P2RY4 mRNA level” value is reported as “remained unchanged”. In data set [2] (during CD4+ T helper cell differentiation), the “carboxypeptidase A3 (CA3) (microarray)” value is given as “activate”. Moreover, the “Tph-1 expression (qPCR)” value in data set [2] (with vs without NAD+) is given as “up-regulation”. In the data set with naïve CD4+ T cells (ELISA), the IL-10 cytokine production entry was “reduced”, the IL-17 cytokine production entry was “did not affect” and the TNF-α expression entry is recorded as “inhibited”. In addition, the “CD4+IL-17A+ cells” value in the data set on naïve CD4+ T cells (flow cytometry) is given as “no changes”. Also, the “visual sign of rejection” value in data set [3] (13 days after transplantation, daily NAD+) is “no visual sign of rejection”. For the same compound, the “allografts survived more than 18 days” value in data set [3] (C57BL/6 skin onto DBA/2 mice, daily i.p. NAD+) was 66%. For the same compound, the skin allograft survival result in data set [3] (C57BL/6 skin onto DBA/2 mice, daily i.p. NAD+ vs control group) is reported as “dramatic allograft survival”. Further, in data set [3] (DBA skin onto IL-10−/− mice (C57BL/6 background), NAD+ treatment), the “skin allograft survival in IL-10−/− mice” value was “abolished the allograft survival”. Besides, in data set [3] (setting [5]), the “frequencies of CD4+IL-17A+ cells” value is listed as “increased frequencies” and the “frequency of CD4+CD25+Foxp3+ nTregs” value is on record as “reduced frequency”.

The values are drawn from patent publication US20160067272A1, “METHODS FOR TREATING IMMUNE DISEASES” (priority 2013, published 2016).
